In brackets after ≈: the same amount, converted by molar mass.
Columns and labels:
A. fumigatus RCMB 002568 = assay: Minimum inhibitory concentration (MIC), antifungal; type: cell-based, Aspergillus fumigates; conditions: A. fumigatus RCMB 002568, fungi, mean of three values; for MIC: Aspergillus fumigatus, RCMB002568, read-out: MIC (Mean ± SEM)
C. albicans RCMB 005036 = assay: Minimum inhibitory concentration (MIC), antifungal; type: cell-based; conditions: Candida albicans, RCMB005036; C. albicans RCMB 005036, fungi; mean of three values; read-out: MIC (Mean ± SEM)
S. pneumonia RCMB 010010 = assay: Minimum inhibitory concentration (MIC), antibacterial; type: cell-based, Streptococcus pneumoniae; conditions: S. pneumonia RCMB 010010, Gram-positive, mean of three values; for MIC: Streptococcus pneumoniae, RCMB010010, read-out: MIC (Mean ± SEM)
B. subtilis RCMB 010067 = assay: as above; type: cell-based; conditions: Bacillus subtilis, RCMB010067; B. subtilis RCMB 010067, Gram-positive; mean of three values; read-out: MIC (Mean ± SEM)
[1] = tested on: P. aeruginosa RCMB 010043; assay: as above; type: cell-based; conditions: Pseudomonas aeruginosa, RCMB010043; P. aeruginosa RCMB 010043, Gram-negative; mean of three values; read-out: MIC (Mean ± SEM)
E. coli RCMB 010052 = assay: as above; type: cell-based; conditions: Escherichia coli, RCMB010052; E. coli RCMB 010052, Gram-negative; mean of three values; read-out: MIC (Mean ± SEM)
[2] = target: T1, dihydrofolate reductase (DHFR) (Homo sapiens, UniProt P00374); assay: In vitro enzyme assay on dihydrofolate reductase (DHFR); type: biochemical; conditions: absorbance at 340 nm, 22 °C, mean of three values, read-out: IC50 (Mean ± SEM) DHFR
T1 sequence (P00374 1-187): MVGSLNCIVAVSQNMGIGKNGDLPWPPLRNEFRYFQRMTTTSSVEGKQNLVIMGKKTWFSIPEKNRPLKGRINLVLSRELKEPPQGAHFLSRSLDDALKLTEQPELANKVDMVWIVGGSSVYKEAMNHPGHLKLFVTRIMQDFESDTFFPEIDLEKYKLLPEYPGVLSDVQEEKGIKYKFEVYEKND

[3] = tested on: all tested strains (S. pneumoniae, B. subtilis, P. aeruginosa, E. coli, A. fumigates, C. albicans); assay: Antimicrobial sensitivity assay, agar well diffusion (inhibition zone); type: cell-based; conditions: tested bacteria and fungi

Row | MIC (Mean ± SEM) (A. fumigatus RCMB 002568) [µg/mL] | MIC (A. fumigatus RCMB 002568) [µg/mL] | MIC (C. albicans RCMB 005036) [µg/mL] | MIC (Mean ± SEM) (S. pneumonia RCMB 010010) [µg/mL] | MIC (S. pneumonia RCMB 010010) [µg/mL] | MIC (B. subtilis RCMB 010067) [µg/mL] | MIC [1] [µg/mL] | MIC (E. coli RCMB 010052) [µg/mL] | IC50 [2] [µM] | melting point [°C] | SMILES | antimicrobial activity (in words) [3]
1 |  | 3.9 ± 0.1 (≈ 9.79 µM) | 62.5 ± 0.5 (≈ 157 µM) |  | 15.6 ± 0.5 (≈ 39.2 µM) | 125 ± 0.4 (≈ 314 µM) | 125 ± 0.3 (≈ 314 µM) | 62.5 ± 0.3 (≈ 157 µM) | 1.36 ± 0.12 | 275 to 277 | Cc1nnc2n(-c3ccccc3)c(=S)n(-c3ccc(S(N)(=O)=O)cc3)nc1-2 [Compound 8a, 4-(7-Methyl-4-phenyl-3-thioxo-3,4-dihydro-2H-pyrazolo[3,4-e][1,2,4]triazin-2-yl)benzenesulphonamide] | highly active
2 |  |  |  |  |  |  |  |  |  | 257 to 259 | Cc1nnc2n(-c3ccccc3)c(=S)n(-c3cccc4ccccc34)nc1-2 [Compound 8b, 7-Methyl-2-(naphthalen-1-yl)-4-phenyl-2,4-dihydro-3H-pyrazolo[3,4-e][1,2,4]triazine-3-thione] | either inactive or less active
3 |  | 250 ± 0.2 (≈ 898 µM) | 7.81 ± 0.2 (≈ 28.1 µM) |  | 3.9 ± 0.3 (≈ 14 µM) | 1.95 ± 0.08 (≈ 7.01 µM) | 15.6 ± 0.5 (≈ 56.2 µM) | 1.95 ± 0.3 (≈ 7.01 µM) | 1.45 ± 0.23 | > 300 | Cc1n[nH]c2nn(-c3ccc(S(N)(=O)=O)cc3)nc12 [Compound 9a, 4-(6-Methylpyrazolo[3,4-d][1,2,3]triazol-2(4H)-yl)benzenesulphonamide] | highly active
4 |  |  |  |  |  |  |  |  |  | > 300 | Cc1n[nH]c2nn(-c3cccc4ccccc34)nc12 [Compound 9b, 6-Methyl-2-(naphthalen-1-yl)-2,4-dihydropyrazolo[3,4-d][1,2,3]triazole] | either inactive or less active

Further lines, the molecule ahead of its results:

Row | SMILES | MIC (Mean ± SEM) (A. fumigatus RCMB 002568) [µg/mL] | MIC (A. fumigatus RCMB 002568) [µg/mL] | MIC (C. albicans RCMB 005036) [µg/mL] | MIC (Mean ± SEM) (S. pneumonia RCMB 010010) [µg/mL] | MIC (S. pneumonia RCMB 010010) [µg/mL] | MIC (B. subtilis RCMB 010067) [µg/mL] | MIC [1] [µg/mL] | MIC (E. coli RCMB 010052) [µg/mL] | IC50 [2] [µM] | melting point [°C] | antimicrobial activity (in words) [3]
5 | C[C@@H]1[C@H](O)[C@@H](C)/C=C/C=C/C=C/C=C/C=C/C=C/C=C/[C@H](O[C@@H]2O[C@H](C)[C@@H](O)[C@H](N)[C@@H]2O)C[C@@H]2O[C@](O)(C[C@@H](O)C[C@@H](O)[C@H](O)CC[C@@H](O)C[C@@H](O)CC(=O)O[C@H]1C)C[C@H](O)[C@H]2C(=O)O [Amphotericin B, reference compound] | 1.95 (≈ 2.11 µM) | 1.95 ± 0.3 (≈ 2.11 µM) | 3.9 ± 0.1 (≈ 4.22 µM) |  |  |  |  |  |  |  | 
6 | O=C(O)c1cn(C2CC2)c2cc(N3CCNCC3)c(F)cc2c1=O [Ciprofloxacin, reference compound] |  |  |  | 0.98 (≈ 2.96 µM) | 0.98 ± 0.2 (≈ 2.96 µM) | 0.1 ± 0.3 (≈ 0.302 µM) | 0.5 ± 0.05 (≈ 1.51 µM) | 0.01 ± 0.1 (≈ 0.0302 µM) |  |  | 
7 | CC1=NNC(=O)C1=NNc1ccc(S(N)(=O)=O)cc1 [Compound 3a, 4-(2-(3-Methyl-5-oxo-1,5-dihydro-4H-pyrazol-4-ylidene)hydrazineyl)benzenesulfonamide] | 1.95 (≈ 6.93 µM) | 1.95 ± 0.1 (≈ 6.93 µM) | 3.9 ± 0.3 (≈ 13.9 µM) | 1.95 (≈ 6.93 µM) | 1.95 ± 0.3 (≈ 6.93 µM) | 0.98 ± 0.1 (≈ 3.48 µM) | 7.81 ± 0.3 (≈ 27.8 µM) | 0.98 ± 0.6 (≈ 3.48 µM) |  |  | 
8 | CC1=NNC(=O)C1=NNc1cccc2ccccc12 [Compound 3b, 5-Methyl-4–(2-(naphthalene-1-yl)hydrazineylidene)-2,4-dihydro-3H-pyrazol-3-one] |  | 125 ± 0.2 (≈ 495 µM) | 62.5 ± 0.1 (≈ 248 µM) |  | 7.81 ± 0.1 (≈ 31 µM) | 15.6 ± 0.5 (≈ 62 µM) | 125 ± 0.3 (≈ 495 µM) | 250 ± 0.5 (≈ 991 µM) | 18.3 ± 0.81 | 189 to 191 | 
9 | Cc1nnc2c(C#N)c(N)n(-c3ccc(S(N)(=O)=O)cc3)nc1-2 [Compound 6a, 4-(6-Amino-7-cyano-3-methyl-5H-pyrazolo[4,3-c]pyridazin-5-yl)benzenesulphonamide] |  | 0.98 ± 0.2 (≈ 2.98 µM) | 3.9 ± 0.03 (≈ 11.8 µM) |  | 0.98 ± 0.1 (≈ 2.98 µM) | 0.49 ± 0.2 (≈ 1.49 µM) | 3.9 ± 0.1 (≈ 11.8 µM) | 0.49 ± 0.4 (≈ 1.49 µM) |  |  | highly active
10 | Cc1n[nH]c2c(C#N)c(=O)n(-c3ccc(S(N)(=O)=O)cc3)nc12 [Compound 6b, 4-(7-Cyano-3-methyl-6-oxo-1,6-dihydro-5H-pyrazolo[4,3-c]pyridazin-5-yl)benzenesulphonamide] | 1.95 (≈ 5.9 µM) | 1.95 ± 0.3 (≈ 5.9 µM) | 7.81 ± 0.05 (≈ 23.6 µM) | 1.95 (≈ 5.9 µM) | 1.95 ± 0.4 (≈ 5.9 µM) | 0.98 ± 0.1 (≈ 2.97 µM) | 62.5 ± 0.3 (≈ 189 µM) | 0.98 ± 0.1 (≈ 2.97 µM) | 5.24 ± 0.37 |  | highly active
11 | Cc1nnc2c(C#N)c(N)n(-c3cccc4ccccc34)nc1-2 [Compound 6c, 6-Amino-3-methyl-5-(naphthalen-1-yl)-5H-pyrazolo[4,3-c]pyridazine-7-carbonitrile] |  |  |  |  |  |  |  |  |  | 288 to 290 | either inactive or less active
12 | Cc1n[nH]c2c(C#N)c(=O)n(-c3cccc4ccccc34)nc12 [Compound 6d, 3-Methyl-5-(naphthalen-1-yl)-6-oxo-5,6-dihydro-1H-pyrazolo[4,3-c]pyridazine-7-carbonitrile] |  |  |  |  |  |  |  |  |  | 282 to 284 | either inactive or less active
